The source of these data is patent US20250221988A1 (Cullgen (Shanghai), Inc., priority 2022, published 2025).

Read-outs that look alike come from different tables or passages of the source. Where only a bound is given, the exact number is not on record here.

What all share (type): cell-based
In one experiment the test system is NCI-H1155 cells. The experiment can be described thus: Cell viability assay in NCI-H1155 cells. The conditions noted are these: Homo sapiens, read-out: NCI-H115 IC50. How it is done: (§1) Cell Culture: RS4;11, MV4;11, MOLM-13 and other cells were cultured at 37° C. with 5% CO2 in RPMI 1640 or DMEM Medium supplemented with 10% fetal bovine serum. Cells were authenticated using the short tandem repeat (STR) assays. Mycoplasma test results were negative.
(§2) Cell viability assays: Cells were seeded at a density of 5000 cells per well in 96-well assay plates and treated with test compounds following a 8-point or 12-point 3-fold serial dilution. Three days later, cell viability was determined using the CellTiter-Glo assay kit according to the manufacturer's instructions. The dose-response curves were determined and IC50 values were calculated using the GraphPad Prism software following a nonlinear regression (least squares fit) method.
(§3) The compounds were tested in HEL, 22RV1, NCI-H82 or NCI-H1155 cells.

A further experiment has as its system MV4;11 cells. The experiment can be described thus: Cell viability assay (CellTiter-Glo) in MV4;11 cells. The conditions noted are these: MV4;11 cells, three days, read-out: MV4. Summed up:
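5000 cells/well in RPMI 1640 or DMEM with 10% FBS, treated with 8- or 12-point 3-fold compound dilutions, with or without gilteritinib (10 nM for MV4;11, 20 nM for MOLM-13). Viability by CellTiter-Glo after three days; IC50 by nonlinear least-squares regression.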
(Cellular ATP, detected with luciferase, serves as a proxy for viable cell number.)

For a further experiment, the system named is MOLM-13 cells. Nature of the experiment: Cell viability assay (CellTiter-Glo) in MOLM-13 cells. The conditions noted are these: MOLM-13 cells, three days.
A further experiment deals with GSPT1 (Homo sapiens, UniProt P15170+Q96SW2). The experiment can be described thus: Immunoblotting of GSPT1 in MOLM-13 cells. The arrangement: endogenous in cells; host or cells: MOLM-13. The conditions noted are these: indicated concentrations, 16 hours. How it is done:
as §1
Antibodies and reagents: Rabbit anti-FLT3 antibody (3462S) was purchased from Cell Signaling Technology. Rabbit anti-GSPT1 antibody (ab126090) was purchased from Abeam. HRP-conjugated anti-α-tubulin antibody was produced in house. Media and other cell culture reagents were purchased from Thermo Fisher. The CellTiter-Glo Luminescent Assay kit was purchased from Promega.
Immunoblotting: Cultured cells were washed with cold PBS once and lysed in cold RIPA buffer supplemented with protease inhibitors and phosphatase inhibitors (Beyotime Biotechnology). The solutions were then incubated at 4° C. for 30 minutes with gentle agitation to fully lyse cells. Cell lysates were centrifuged at 13,000 rpm for 10 minutes at 4° C. and pellets were discarded. Total protein concentrations in the lysates were determined by BCA assays (Beyotime Biotechnology). Cell lysates were mixed with Laemmli loading buffer to 1× and heated at 99° C. for 5 min. Proteins were resolved on SDS-PAGE and visualized by chemiluminescence. Images were taken by a ChemiDoc MP Imaging system (Bio-Rad). Protein bands were quantitated using the accompanied software provided by Bio-Rad.
For orientation: In western blotting, separated proteins are transferred to a membrane and probed.

The subject of the next experiment is NCI-H82 cells. The experiment can be described thus: Cell viability assay in NCI-H82 cells. The conditions noted are these: Homo sapiens. As for the experimental part:
as §1, §2, §3

Where [1] appears, read: Homo sapiens, MV4-11, 72 h, compound alone, 11 IC50.
The mark [2] stands for this setting: with 10 nM gilteritinib, 11 IC50 (nM) + 10 nM Gil.
The mark [3] stands for this setting: Homo sapiens, 72 h, compound alone, read-out: MOLM-13 IC50.
Setting [4] is: with gilteritinib, read-out: MOLM-13 IC50 (nM) + 10 nM Gil.

Chain of GSPT1 (P15170 whole entry): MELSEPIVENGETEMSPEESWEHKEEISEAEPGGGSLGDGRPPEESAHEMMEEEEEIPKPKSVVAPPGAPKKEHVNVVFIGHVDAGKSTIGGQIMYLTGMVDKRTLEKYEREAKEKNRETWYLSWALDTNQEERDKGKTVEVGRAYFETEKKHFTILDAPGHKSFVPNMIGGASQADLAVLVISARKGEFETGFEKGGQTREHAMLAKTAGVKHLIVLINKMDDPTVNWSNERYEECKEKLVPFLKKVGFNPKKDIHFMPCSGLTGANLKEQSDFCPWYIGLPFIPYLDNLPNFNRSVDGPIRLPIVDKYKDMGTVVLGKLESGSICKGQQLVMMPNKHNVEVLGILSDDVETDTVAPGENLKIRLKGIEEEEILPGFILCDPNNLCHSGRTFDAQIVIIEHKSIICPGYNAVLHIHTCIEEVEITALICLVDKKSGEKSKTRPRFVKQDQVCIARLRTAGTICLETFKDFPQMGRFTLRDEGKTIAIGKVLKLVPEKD
Chain of GSPT1 (Q96SW2 whole entry): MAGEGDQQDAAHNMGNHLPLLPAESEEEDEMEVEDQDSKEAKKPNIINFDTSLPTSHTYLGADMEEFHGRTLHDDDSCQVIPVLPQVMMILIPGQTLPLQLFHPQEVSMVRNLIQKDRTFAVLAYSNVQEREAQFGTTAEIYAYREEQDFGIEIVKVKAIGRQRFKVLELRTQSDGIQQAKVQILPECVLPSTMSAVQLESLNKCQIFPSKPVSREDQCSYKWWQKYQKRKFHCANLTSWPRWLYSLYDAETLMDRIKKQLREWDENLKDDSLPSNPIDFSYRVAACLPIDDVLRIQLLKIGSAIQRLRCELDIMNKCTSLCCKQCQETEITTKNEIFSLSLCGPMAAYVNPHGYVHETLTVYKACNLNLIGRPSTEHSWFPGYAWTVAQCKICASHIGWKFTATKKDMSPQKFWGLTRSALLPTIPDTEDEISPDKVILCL
Chain of GSPT1 (Q16531 whole entry partner): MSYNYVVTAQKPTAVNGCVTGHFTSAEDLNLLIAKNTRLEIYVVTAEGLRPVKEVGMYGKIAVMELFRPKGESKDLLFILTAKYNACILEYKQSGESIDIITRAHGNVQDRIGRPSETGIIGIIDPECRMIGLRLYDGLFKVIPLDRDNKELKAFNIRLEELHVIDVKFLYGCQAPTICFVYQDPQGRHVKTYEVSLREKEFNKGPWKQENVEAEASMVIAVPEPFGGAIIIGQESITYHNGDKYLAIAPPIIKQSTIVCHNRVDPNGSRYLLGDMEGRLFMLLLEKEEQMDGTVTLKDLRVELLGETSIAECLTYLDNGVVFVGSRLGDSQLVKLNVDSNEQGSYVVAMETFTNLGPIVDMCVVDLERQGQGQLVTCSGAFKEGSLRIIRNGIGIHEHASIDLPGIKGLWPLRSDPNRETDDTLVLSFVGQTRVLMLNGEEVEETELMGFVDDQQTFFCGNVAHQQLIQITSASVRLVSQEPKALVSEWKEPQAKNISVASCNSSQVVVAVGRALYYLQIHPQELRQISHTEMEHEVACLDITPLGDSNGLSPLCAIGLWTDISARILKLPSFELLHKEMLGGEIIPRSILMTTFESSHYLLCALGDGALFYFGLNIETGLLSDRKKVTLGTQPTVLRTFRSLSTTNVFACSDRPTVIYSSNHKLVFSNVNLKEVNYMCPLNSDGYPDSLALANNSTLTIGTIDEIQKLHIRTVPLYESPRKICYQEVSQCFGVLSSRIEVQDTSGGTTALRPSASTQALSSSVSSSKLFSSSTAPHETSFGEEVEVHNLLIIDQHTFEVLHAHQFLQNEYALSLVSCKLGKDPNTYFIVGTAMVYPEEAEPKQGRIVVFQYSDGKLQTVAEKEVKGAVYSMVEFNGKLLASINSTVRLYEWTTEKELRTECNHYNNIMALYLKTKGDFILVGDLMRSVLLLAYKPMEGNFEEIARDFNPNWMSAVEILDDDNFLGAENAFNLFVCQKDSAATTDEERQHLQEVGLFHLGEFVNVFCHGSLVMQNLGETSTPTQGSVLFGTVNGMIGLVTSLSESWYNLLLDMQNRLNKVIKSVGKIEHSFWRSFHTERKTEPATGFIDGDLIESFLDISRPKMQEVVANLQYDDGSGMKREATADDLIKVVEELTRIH

With `Cc1nc(-c2cn([C@H]3C[C@H](CNc4ccc5c(c4)CN(C4CCC(=O)NC4=O)C5=O)C3)nc2C2CC2)c(F)cc1F` (stereo partly drawn) [GS-809, 3-(5-(((trans-3-(3-cyclopropyl-4-(3,5-difluoro-6-methylpyridin-2-yl)-1H-pyrazol-1-yl)cyclobutyl)methyl)amino)-1-oxoisoindolin-2-yl)piperidine-2,6-dione], the IC50 with NCI-H1155 cells is under 0.01 µM.

Turning to `Cn1ncc2ccc(-c3cn([C@H]4C[C@H](CNc5ccc6c(c5)C(=O)N(C5CCC(=O)NC5=O)C6=O)C4)nc3C3CC3)nc21` (stereo partly drawn) [GS-729, 5-(((Trans-3-(3-cyclopropyl-4-(1-methyl-1H-pyrazolo[3,4-b]pyridin-6-yl)-1H-pyrazol-1-yl)cyclobutyl)methyl)amino)-2-(2,6-dioxopiperidin-3-yl)isoindoline-1,3-dione], the IC50 in the experiment on MV4;11 cells (setting [1]) is 10 to 100 nM; with MV4;11 cells (setting [2]), under 10 nM; in the experiment on MOLM-13 cells (setting [3]) it was 10 to 100 nM; in the experiment on MOLM-13 cells (setting [4]) it was under 10 nM. Further, the “small molecule-mediated targeted degradation of GSPT1” value on GSPT1 is on record as “targeted degradation of GSPT1”.

Turning to `O=C1CCC(N2Cc3cc(NC[C@H]4C[C@H](n5cc(-c6ncc(F)c7cccnc67)c(C6CC6)n5)C4)ccc3C2=O)C(=O)N1` (stereo partly drawn) [GS-788, 3-(5-(((Trans-3-(3-cyclopropyl-4-(5-fluoro-1,7-naphthyridin-8-yl)-1H-pyrazol-1-yl)cyclobutyl)methyl)amino)-1-oxoisoindolin-2-yl)piperidine-2,6-dione], the IC50 with MV4;11 cells (setting [1]), in the experiment on MV4;11 cells (setting [2]), in the experiment with MOLM-13 cells (setting [3]) and in the experiment on MOLM-13 cells (setting [4]) was under 10 nM in each case. Besides, the “small molecule-mediated targeted degradation of GSPT1” value at GSPT1 is “targeted degradation of GSPT1”.

Take `O=C1CCC(N2Cc3cc(NC[C@H]4C[C@H](n5cc(-c6ccc(F)c(C(F)F)n6)c(C6CC6)n5)C4)ccc3C2=O)C(=O)N1` (stereo partly drawn) [GS-802, 3-(5-(((Trans-3-(3-cyclopropyl-4-(6-(difluoromethyl)-5-fluoropyridin-2-yl)-1H-pyrazol-1-yl)cyclobutyl)methyl)amino)-1-oxoisoindolin-2-yl)piperidine-2,6-dione]: the values for the IC50 with MOLM-13 cells (setting [3]) and in the experiment on NCI-H1155 cells were 10 to 100 nM and 0.01 to 0.1 µM, respectively. For the same molecule, the “small molecule-mediated targeted degradation of GSPT1” value at GSPT1 is given as “targeted degradation of GSPT1”.

Turning to `Cc1nc(-c2cn([C@H]3C[C@H](CNc4ccc5c(c4)CN(C4CCC(=O)NC4=O)C5=O)C3)nc2C2CC2)ccc1F` (stereo partly drawn) [GS-731, 3-(5-(((Trans-3-(3-cyclopropyl-4-(5-fluoro-6-methylpyridin-2-yl)-1H-pyrazol-1-yl)cyclobutyl)methyl)amino)-1-oxoisoindolin-2-yl)piperidine-2,6-dione], the IC50 was under 10 nM with MV4;11 cells (setting [1]), under 10 nM in the experiment on MV4;11 cells (setting [2]), 10 to 100 nM in the experiment on MOLM-13 cells (setting [3]) and under 10 nM in the experiment on MOLM-13 cells (setting [4]). Besides, on GSPT1, the “small molecule-mediated targeted degradation of GSPT1” value is listed as “targeted degradation of GSPT1”.

On to `O=C1CCC(N2Cc3cc(NC[C@H]4C[C@H](n5cc(-c6ccc(F)c(C(F)(F)F)n6)c(C6CC6)n5)C4)ccc3C2=O)C(=O)N1` (stereo partly drawn) [GS-803, 3-(5-(((Trans-3-(3-cyclopropyl-4-(5-fluoro-6-(trifluoromethyl)pyridin-2-yl)-1H-pyrazol-1-yl)cyclobutyl)methyl)amino)-1-oxoisoindolin-2-yl)piperidine-2,6-dione], for which the IC50 was under 10 nM in the experiment on MOLM-13 cells (setting [3]) and under 0.01 µM with NCI-H1155 cells. In addition, the “small molecule-mediated targeted degradation of GSPT1” value on GSPT1 is reported as “targeted degradation of GSPT1”.

On to `O=C1CCC(N2C(=O)c3ccc(NC[C@H]4C[C@H](n5cc(-c6ncc(F)c7cccnc67)c(C6CC6)n5)C4)cc3C2=O)C(=O)N1` (stereo partly drawn) [GS-697, 5-(((Trans-3-(3-cyclopropyl-4-(5-fluoro-1,7-naphthyridin-8-yl)-1H-pyrazol-1-yl)cyclobutyl)methyl)amino)-2-(2,6-dioxopiperidin-3-yl)isoindoline-1,3-dione], for which the IC50 with MV4;11 cells (setting [1]), with MV4;11 cells (setting [2]), in the experiment with MOLM-13 cells (setting [3]) and in the experiment on MOLM-13 cells (setting [4]) was under 10 nM each time. The “small molecule-mediated targeted degradation of GSPT1” value on GSPT1 was “targeted degradation of GSPT1”.

In turn, `Cc1nc(-c2cn([C@H]3C[C@H](CNc4ccc5c(c4)CN(C4CCC(=O)NC4=O)C5=O)C3)nc2C2CC2)c(Cl)cc1F` (stereo partly shown) [GS-812] yielded an IC50 in the experiment with NCI-H82 cells of under 0.01 µM.

With `Nc1cccc(-c2cn([C@H]3C[C@H](CNc4ccc5c(c4)CN(C4CCC(=O)NC4=O)C5=O)C3)nc2C2CC2)n1` (stereo partly drawn) [GS-810, 3-(5-(((Trans-3-(4-(6-aminopyridin-2-yl)-3-cyclopropyl-1H-pyrazol-1-yl)cyclobutyl)methyl)amino)-1-oxoisoindolin-2-yl)piperidine-2,6-dione], in the experiment with NCI-H1155 cells, the IC50 fell in the range of 0.01 to 0.1 µM.

As to `CNc1cccc(-c2cn([C@H]3C[C@H](CNc4ccc5c(c4)CN(C4CCC(=O)NC4=O)C5=O)C3)nc2C2CC2)n1` (relative stereo) [GS-811, 3-(5-(((Trans-3-(3-cyclopropyl-4-(6-(methylamino)pyridin-2-yl)-1H-pyrazol-1-yl)cyclobutyl)methyl)amino)-1-oxoisoindolin-2-yl)piperidine-2,6-dione], the IC50 with NCI-H1155 cells fell in the range of 0.01 to 0.1 µM.

As for `Cc1cc(F)cnc1-c1cn([C@H]2C[C@H](CNc3ccc4c(c3)CN(C3CCC(=O)NC3=O)C4=O)C2)nc1C(F)F` (stereo partly drawn) [GS-668, 3-(5-(((Trans-3-(3-(difluoromethyl)-4-(5-fluoro-3-methylpyridin-2-yl)-1H-pyrazol-1-yl)cyclobutyl)methyl)amino)-1-oxoisoindolin-2-yl)piperidine-2,6-dione], the IC50 in the experiment on MV4;11 cells (setting [1]), in the experiment on MV4;11 cells (setting [2]), in the experiment on MOLM-13 cells (setting [3]) and in the experiment on MOLM-13 cells (setting [4]) was under 10 nM each time.

As for `Cc1nc(-c2cn(C[C@H]3C[C@H](Nc4ccc5c(c4)C(=O)N(C4CCC(=O)NC4=O)C5=O)C3)nc2C2CC2)ccc1F` (stereo partly drawn) [GS-711, 5-((Trans-3-((3-cyclopropyl-4-(5-fluoro-6-methylpyridin-2-yl)-1H-pyrazol-1-yl)methyl)cyclobutyl)amino)-2-(2,6-dioxopiperidin-3-yl)isoindoline-1,3-dione], the IC50 with MV4;11 cells (setting [1]) and in the experiment on MOLM-13 cells (setting [3]) was over 1000 nM in each case.

For the molecule `Cn1ncc2cnc(-c3cn([C@H]4C[C@H](CCc5ccc6c(c5)C(=O)N(C5CCC(=O)NC5=O)C6=O)C4)nc3C3CC3)cc21` (stereo partly drawn) [GS-767, 5-(2-(Trans-3-(3-cyclopropyl-4-(1-methyl-1H-pyrazolo[4,3-c]pyridin-6-yl)-1H-pyrazol-1-yl)cyclobutyl)ethyl)-2-(2,6-dioxopiperidin-3-yl)isoindoline-1,3-dione], the IC50 with MV4;11 cells (setting [1]) lay within 100 to 1000 nM; with MV4;11 cells (setting [2]), 10 to 100 nM; with MOLM-13 cells (setting [3]) it was 100 to 1000 nM; in the experiment with MOLM-13 cells (setting [4]) it was 10 to 100 nM.

Turning to `Cn1ccc2ccc(-c3cn([C@H]4C[C@H](CNc5ccc6c(c5)C(=O)N(C5CCC(=O)NC5=O)C6=O)C4)nc3C3CC3)nc21` (stereo partly drawn) [GS-722, 5-(((trans-3-(3-cyclopropyl-4-(1-methyl-1H-pyrrolo[2,3-b]pyridin-6-yl)-1H-pyrazol-1-yl)cyclobutyl)methyl)amino)-2-(2,6-dioxopiperidin-3-yl)isoindoline-1,3-dione], the IC50 in the experiment on MV4;11 cells (setting [1]) was 10 to 100 nM; in the experiment on MV4;11 cells (setting [2]) it was under 10 nM; with MOLM-13 cells (setting [3]), 10 to 100 nM; in the experiment on MOLM-13 cells (setting [4]) it was under 10 nM.

Turning to `Cn1ncc2ccnc(-c3cn([C@H]4C[C@H](CNc5ccc6c(c5)C(=O)N(C5CCC(=O)NC5=O)C6=O)C4)nc3C3CC3)c21` (stereo partly drawn) [GS-649, 5-(((trans-3-(3-Cyclopropyl-4-(1-methyl-1H-pyrazolo[3,4-c]pyridin-7-yl)-1H-pyrazol-1-yl)cyclobutyl)methyl)amino)-2-(2,6-dioxopiperidin-3-yl)isoindoline-1,3-dione], the IC50 with MV4;11 cells (setting [1]) was under 10 nM; with MV4;11 cells (setting [2]) it was under 10 nM; with MOLM-13 cells (setting [3]), 10 to 100 nM; with MOLM-13 cells (setting [4]), under 10 nM.

Turning to `O=C1CCC(N2C(=O)c3ccc(NC[C@H]4C[C@H](n5cc(-c6ncccc6OC6CC6)c(C6CC6)n5)C4)cc3C2=O)C(=O)N1` (stereo partly drawn) [GS-641, 5-(((Trans-3-(4-(3-cyclopropoxypyridin-2-yl)-3-cyclopropyl-1H-pyrazol-1-yl)cyclobutyl)methyl)amino)-2-(2,6-dioxopiperidin-3-yl)isoindoline-1,3-dione], the IC50 with MV4;11 cells (setting [1]), with MV4;11 cells (setting [2]), in the experiment on MOLM-13 cells (setting [3]) and in the experiment on MOLM-13 cells (setting [4]) was under 10 nM in each case.
